{"source": "patent US6583177B2", "about": "“Leukotriene B4 antagonist compounds and method for treatment” (Ono Pharmaceutical Co., Ltd., priority 1994, dated 2003)", "key": {"[1]": {"target": "T1, PLA2 (derived from hog pancreas) (Sus scrofa, UniProt P00592)", "T1 construct": "a solution of 10 mU/ml PLA2 (derived from hog pancreas) (50 μl); from tissue; host or cells: hog pancreas", "T1 sequence (P00592 23-146)": "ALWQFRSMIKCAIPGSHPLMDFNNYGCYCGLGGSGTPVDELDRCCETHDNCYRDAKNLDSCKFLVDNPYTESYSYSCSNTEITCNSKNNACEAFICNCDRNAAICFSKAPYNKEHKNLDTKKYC", "experiment": "Inhibitory activity on PLA2", "format": "biochemical", "conditions": "hog pancreas PLA2, 10PY-PC substrate, fluorescence, pH7.5", "description": "(1) Inhibitory Activity on PLA2\nA reaction solution including 50 mM tris-HCl buffer (pH7.5, 874 μl; containing 100 mM sodium chloride, 1 mM EDTA), 1M calciumchloride (6 μl), 1% bovine serum albumin (10 μl) and 2.5 mM 10PY-PC (10 μl), was prepared. To the solution were added a test compound in various concentration or water (50 μl), and a solution of 10 mU/ml PLA2 (derived from hog pancreas) (50 μl). The appearance of fluorescence was measured (Ex=345 nm, Em=396 nm). Percentage (%) of the strength of fluorescence in the presence of a test compound was calculated when the strength of that in the absence thereof was regarded as 100%, and therefrom IC50 value was calculated.\n10PY-PC represents 3′-palmitoyl-2-(1-pyrenedecanoyl)-L-α-phosphatidylcholine, […]"}, "[2]": {"target": "T2, trypsin (derived from bovine pancreas) (Bos taurus, UniProt P00760)", "T2 construct": "a solution of 80 mU/ml trypsin (derived from bovine pancreas) (50 μl); from tissue; host or cells: bovine pancreas", "T2 sequence (P00760 24-246)": "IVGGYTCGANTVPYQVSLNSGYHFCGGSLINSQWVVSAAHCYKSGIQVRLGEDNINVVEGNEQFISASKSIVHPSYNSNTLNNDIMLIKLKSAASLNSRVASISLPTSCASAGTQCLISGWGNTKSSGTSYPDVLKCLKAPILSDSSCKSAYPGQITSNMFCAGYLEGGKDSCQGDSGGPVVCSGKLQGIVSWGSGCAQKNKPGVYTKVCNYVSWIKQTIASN", "experiment": "Inhibitory activity on trypsin", "format": "biochemical", "conditions": "bovine pancreas trypsin, BAPNA substrate, 30° C., pH 8.0; read-out: inhibitory activity on trypsin IC50", "description": "(2) Inhibitory Activity on Trypsin\nTo a mixture of a 0.2 M HEPES.sodium hydroxide buffer solution (pH 8.0, 100 μl) and distilled water (640 μl), were added a test compound in various concentration or water (10 μl), and a solution of 80 mU/ml trypsin (derived from bovine pancreas) (50 μl) and then the mixture was preincubated for one minute at 30° C. To the solution thus obtained was added 2.5 mM BAPNA (200 μl) and the mixture was incubated at 30° C. The absorbance at 405 nm was measured. Percentage (%) of the absorbance in the presence of a test compound was calculated when the absorbance in the absence thereof was regarded as 100%, and therefrom IC50 value was calculated.\nHEPES represents 4-2-hydroxyethyl)-1-piperazineethanesulfonic acid, and\nBAPNA represents α-N-benzoyl-DL-arginine-p-nitroanilide hydrochloride."}, "LTB4 receptor": {"target": "T3, LTB4 receptor (Homo sapiens, UniProt Q15722)", "T3 construct": "The reaction was started by addition of a thoroughly mixed PMN cell suspension (1.6×10^6 cells); endogenous in cells; host or cells: human polymorphonuclear leukocytes (PMN), whole-cell suspension", "T3 sequence (Q15722 whole entry)": "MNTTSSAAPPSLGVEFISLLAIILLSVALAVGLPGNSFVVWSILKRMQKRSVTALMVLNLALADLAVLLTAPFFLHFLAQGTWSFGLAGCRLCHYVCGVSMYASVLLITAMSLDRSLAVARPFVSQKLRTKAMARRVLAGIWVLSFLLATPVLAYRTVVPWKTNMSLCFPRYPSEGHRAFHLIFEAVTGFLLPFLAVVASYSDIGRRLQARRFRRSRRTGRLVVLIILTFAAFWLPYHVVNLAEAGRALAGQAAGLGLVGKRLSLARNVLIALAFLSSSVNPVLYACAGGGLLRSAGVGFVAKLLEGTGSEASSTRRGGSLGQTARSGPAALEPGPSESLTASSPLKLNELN", "experiment": "Binding inhibition against 3H-LTB4 on the human polymorphonuclear leukocyte (PMN)", "conditions": "percentage of inhibition of specific 3H-LTB4 (4nM) binding to human PMN, 0° C. for 20 min; formula (IB) compounds, Table 18", "description": "Binding Inhibition Against ^3H-LTB4 on the Human Polymorphonuclear Leukocyte (PMN)\n0.049 ml Hanks balanced salt solution (HBSS), 0.001 ml test compound and 0.05 ml ^3H-LTB4 (4nM) were added to polypropylene tubes and mixed. The reaction was started by addition of a thoroughly mixed PMN cell suspension (1.6×10^6 cells), followed by incubation at 0° C. for 20 min. The reaction was terminated by the addition of ice-cold HBSS (2.5 ml). PMNs were harvested by vacuum filtration through Whatman GF/C glass fiber filters on a Brandel cell harvester (BRANDEL, M-24R). The filters were then washed 2 times to remove free ^3H-LTB4 with 2.5 ml of the ice-cold PBS (−) solution. The filters were transferred to each vial, and equilibrated after adding 8 ml ACS II cocktail (Amersham). The radioactivity was measured by liquid scintillation counter (Aloka, LSC-5100).\nSpecific binding of ^3H-LTB4 to the LTB4 receptor was defined as total binding minus nonspecific binding. Nonspecific binding was the amount of ^3H-LTB4 binding in the presence of 1.5 μM LTB4 instead of the test compound. The inhibitory effect of test compound was calculated from the following equation.\nThe percentage of inhibition (%)=100−(B1/B0×100)\nB1: Specific ^3H-LTB4 binding in presence of test compound\nB0: Specific ^3H-LTB4 binding in absence of test compound\nThe compounds of the formula (IB), of the present invention have an antagonistic activity on LTB4. The results which are measured by method as hereinbefore described in Example 1(A), are shown the following Table 18."}}}
{"smiles": "C=CCC(NC(=O)/C(C)=C/c1ccc(C(=O)Oc2ccc(C(=N)N)cc2)cc1)(C(=O)OCC)C(=O)OCC", "note": "[Example 2(o)]", "values": [{"measurement": "IC50", "setting": "[1]", "result": 12, "unit": "µM"}, {"measurement": "IC50", "setting": "[2]", "result": 0.14, "unit": "µM"}, {"measurement": "inhibition", "setting": "LTB4 receptor", "result": 85.8, "unit": "%"}]}
{"smiles": "CCOC(=O)CC[C@H](NC(=O)c1ccc(/C(C)=C/C(=O)Oc2ccc(C(=N)N)cc2)cc1)C(=O)OCC", "note": "[Example 2(p)]", "values": [{"measurement": "IC50", "setting": "[1]", "result": 29, "unit": "µM"}, {"measurement": "IC50", "setting": "[2]", "result": 0.13, "unit": "µM"}, {"measurement": "inhibition", "setting": "LTB4 receptor", "result": 95.2, "unit": "%"}]}
{"smiles": "C=CCN(CC(=O)OCC)C(=O)c1ccc(/C(C)=C/C(=O)Oc2ccc(C(=N)N)cc2)cc1", "note": "[Example 2(q)]", "values": [{"measurement": "IC50", "setting": "[1]", "result": 34, "unit": "µM"}, {"measurement": "IC50", "setting": "[2]", "result": 0.16, "unit": "µM"}, {"measurement": "inhibition", "setting": "LTB4 receptor", "result": 98, "unit": "%"}]}
{"smiles": "CCOC(=O)CC[C@H](NC(=O)C(=Cc1ccc(C(=O)Oc2ccc(C(=N)N)cc2)cc1)C(=O)OCC)C(=O)OCC", "note": "[Example 2(r)]", "values": [{"measurement": "IC50", "setting": "[1]", "result": 46, "unit": "µM"}, {"measurement": "IC50", "setting": "[2]", "result": 0.16, "unit": "µM"}, {"measurement": "inhibition", "setting": "LTB4 receptor", "result": 80.1, "unit": "%"}]}
{"smiles": "C=CCN(CC(=O)OCC)C(=O)C(=Cc1ccc(C(=O)Oc2ccc(C(=N)N)cc2)cc1)C(=O)OCC", "note": "[Example 2(s)]", "values": [{"measurement": "IC50", "setting": "[1]", "result": 44, "unit": "µM"}, {"measurement": "IC50", "setting": "[2]", "result": 0.16, "unit": "µM"}, {"measurement": "inhibition", "setting": "LTB4 receptor", "result": 83, "unit": "%"}]}
